Results as given in PubChem BioAssay (NCI).
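Test compounds were applied to cells in 96-well plates for 48 hours at 5 doses. GI50: concentration for 50% inhibition of growth. TGI marks complete inhibition of growth.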

Columns and labels:
Experiment in all cases: NCI anticancer screen, dose series, 48 h
[1] = tested on: SK-MEL-2 melanoma
[2] = tested on: BT-549 breast
[3] = tested on: IGROV1 ovarian
[4] = tested on: K-562 leukemia
[5] = tested on: A549 NSCLC
[6] = tested on: MDA-MB-231 breast
[7] = tested on: MALME-3M melanoma
[8] = tested on: SNB-19 CNS
[9] = tested on: CAKI-1 renal
[10] = tested on: HCT-116 colon
[11] = tested on: M14 melanoma
[12] = tested on: OVCAR-5 ovarian
[13] = tested on: RPMI-8226 leukemia
[14] = tested on: HT29 colon
[15] = tested on: U251 CNS
[16] = tested on: SW-620 colon
[17] = tested on: SF-268 CNS
[18] = tested on: NCI/ADR-RES ovarian
[19] = tested on: HCC-2998 colon
[20] = tested on: UACC-257 melanoma
[21] = tested on: OVCAR-3 ovarian
[22] = tested on: MDA-MB-435
[23] = tested on: SF-295 CNS
[24] = tested on: SK-OV-3 ovarian
[25] = tested on: HOP-62 NSCLC
[26] = tested on: OVCAR-8 ovarian
[27] = tested on: CCRF-CEM leukemia
[28] = tested on: RXF 393 renal
[29] = tested on: COLO 205 colon
[30] = tested on: SK-MEL-28 melanoma
[31] = tested on: DU-145 prostate
[32] = tested on: MOLT-4 leukemia
[33] = tested on: TK-10 renal
[34] = tested on: A498 renal
[35] = tested on: SK-MEL-5 melanoma
[36] = tested on: 786-0 renal
[37] = tested on: NCI-H460 lung
[38] = tested on: T-47D breast
[39] = tested on: SF-539 CNS
[40] = tested on: ACHN renal
[41] = tested on: KM12 colon
[42] = tested on: SN12C renal
[43] = tested on: EKVX NSCLC
[44] = tested on: UACC-62 melanoma
[45] = tested on: MCF7 breast
[46] = tested on: PC-3 prostate
[47] = tested on: UO-31 renal
[48] = tested on: SNB-75 CNS
[49] = tested on: MDA-N

Q: With C[C@H]1CCCC(O)C(O)[C@@H]2C[C@H](O[Si](C)(C)C(C)(C)C)C[C@H]2[C@H](O[Si](C)(C)C(C)(C)C)C(O)C(O)C(=O)O1 (stereo partly drawn) as the compound, how does the GI50 [1] read?
A: 34.8 µM

Q: What about the TGI [1] of the same compound?
A: > 100 µM

Q: And the GI50 [2]?
A: 20.1 µM

Q: What about the TGI [2] of the same compound?
A: > 100 µM

Q: What about the GI50 [3] of the same compound?
A: 16.2 µM

Q: What about the TGI [3] of the same compound?
A: 43 µM

Q: And the GI50 [4]?
A: 69.4 µM

Q: And the TGI [4]?
A: > 100 µM

Q: What about the GI50 [5] of the same compound?
A: 31.5 µM

Q: What about the TGI [5] of the same compound?
A: > 100 µM

Q: What about the GI50 [6] of the same compound?
A: 14.2 µM

Q: And the TGI [6]?
A: 38.5 µM

Q: What about the GI50 [7] of the same compound?
A: 11.7 µM

Q: And the TGI [7]?
A: 35.2 µM

Q: And the GI50 [8]?
A: 15.9 µM

Q: And the TGI [8]?
A: 46.7 µM

Q: What about the GI50 [9] of the same compound?
A: 23.5 µM

Q: What about the TGI [9] of the same compound?
A: 89.7 µM

Q: And the GI50 [10]?
A: 28.3 µM

Q: And the TGI [10]?
A: > 100 µM

Q: And the GI50 [11]?
A: 39.1 µM

Q: And the TGI [11]?
A: > 100 µM

Q: What about the GI50 [12] of the same compound?
A: 31.8 µM

Q: And the TGI [12]?
A: > 100 µM

Q: And the GI50 [13]?
A: > 100 µM

Q: And the TGI [13]?
A: > 100 µM

Q: What about the GI50 [14] of the same compound?
A: 62.7 µM

Q: And the TGI [14]?
A: > 100 µM

Q: What about the GI50 [15] of the same compound?
A: 12.7 µM

Q: What about the TGI [15] of the same compound?
A: 30.9 µM

Q: And the GI50 [16]?
A: 94.7 µM

Q: And the TGI [16]?
A: > 100 µM

Q: And the GI50 [17]?
A: 20 µM

Q: And the TGI [17]?
A: > 100 µM

Q: And the GI50 [18]?
A: 27.2 µM

Q: And the TGI [18]?
A: > 100 µM

Q: And the GI50 [19]?
A: 17.5 µM

Q: And the TGI [19]?
A: 50.3 µM

Q: What about the GI50 [20] of the same compound?
A: 35.2 µM

Q: What about the TGI [20] of the same compound?
A: > 100 µM

Q: What about the GI50 [21] of the same compound?
A: 25 µM

Q: And the TGI [21]?
A: 79.7 µM

Q: What about the GI50 [22] of the same compound?
A: > 100 µM

Q: What about the TGI [22] of the same compound?
A: > 100 µM

Q: And the GI50 [23]?
A: 32 µM

Q: What about the TGI [23] of the same compound?
A: > 100 µM

Q: And the GI50 [24]?
A: 54.6 µM

Q: What about the TGI [24] of the same compound?
A: > 100 µM

Q: And the GI50 [25]?
A: 11 µM

Q: What about the TGI [25] of the same compound?
A: 27.6 µM

Q: What about the GI50 [26] of the same compound?
A: 13.5 µM

Q: And the TGI [26]?
A: 37.3 µM

Q: What about the GI50 [27] of the same compound?
A: 28 µM

Q: And the TGI [27]?
A: > 100 µM

Q: And the GI50 [28]?
A: 31.8 µM

Q: And the TGI [28]?
A: > 100 µM

Q: And the GI50 [29]?
A: > 100 µM

Q: What about the TGI [29] of the same compound?
A: > 100 µM

Q: What about the GI50 [30] of the same compound?
A: 47.9 µM

Q: And the TGI [30]?
A: > 100 µM

Q: And the GI50 [31]?
A: 28.3 µM

Q: What about the TGI [31] of the same compound?
A: > 100 µM

Q: And the GI50 [32]?
A: 66 µM

Q: And the TGI [32]?
A: > 100 µM

Q: And the GI50 [33]?
A: 17.2 µM

Q: And the TGI [33]?
A: 43.2 µM

Q: And the GI50 [34]?
A: 40.4 µM

Q: What about the TGI [34] of the same compound?
A: > 100 µM

Q: And the GI50 [35]?
A: 45.4 µM

Q: What about the TGI [35] of the same compound?
A: > 100 µM

Q: What about the GI50 [36] of the same compound?
A: 10.6 µM

Q: What about the TGI [36] of the same compound?
A: 22.3 µM

Q: What about the GI50 [37] of the same compound?
A: 11 µM

Q: What about the TGI [37] of the same compound?
A: 23.9 µM

Q: And the GI50 [38]?
A: 28.4 µM

Q: What about the TGI [38] of the same compound?
A: > 100 µM

Q: What about the GI50 [39] of the same compound?
A: 14.4 µM

Q: And the TGI [39]?
A: 30.7 µM

Q: What about the GI50 [40] of the same compound?
A: 14.4 µM

Q: What about the TGI [40] of the same compound?
A: 44.7 µM

Q: And the GI50 [41]?
A: 37.5 µM

Q: What about the TGI [41] of the same compound?
A: > 100 µM

Q: What about the GI50 [42] of the same compound?
A: 34.6 µM

Q: And the TGI [42]?
A: > 100 µM

Q: What about the GI50 [43] of the same compound?
A: 26.1 µM

Q: And the TGI [43]?
A: 72.3 µM

Q: What about the GI50 [44] of the same compound?
A: 18.5 µM

Q: What about the TGI [44] of the same compound?
A: 48.8 µM

Q: And the GI50 [45]?
A: 50.2 µM

Q: What about the TGI [45] of the same compound?
A: > 100 µM

Q: And the GI50 [46]?
A: 46.1 µM

Q: What about the TGI [46] of the same compound?
A: > 100 µM

Q: And the GI50 [47]?
A: 42.2 µM

Q: What about the TGI [47] of the same compound?
A: > 100 µM

Q: What about the GI50 [48] of the same compound?
A: 4.3 µM

Q: What about the TGI [48] of the same compound?
A: 18.1 µM

Q: And the GI50 [49]?
A: > 100 µM

Q: And the TGI [49]?
A: > 100 µM
